One data set deals with T1, GLP-1R (Mus musculus, UniProt O35659).
T1 sequence (O35659 22-463): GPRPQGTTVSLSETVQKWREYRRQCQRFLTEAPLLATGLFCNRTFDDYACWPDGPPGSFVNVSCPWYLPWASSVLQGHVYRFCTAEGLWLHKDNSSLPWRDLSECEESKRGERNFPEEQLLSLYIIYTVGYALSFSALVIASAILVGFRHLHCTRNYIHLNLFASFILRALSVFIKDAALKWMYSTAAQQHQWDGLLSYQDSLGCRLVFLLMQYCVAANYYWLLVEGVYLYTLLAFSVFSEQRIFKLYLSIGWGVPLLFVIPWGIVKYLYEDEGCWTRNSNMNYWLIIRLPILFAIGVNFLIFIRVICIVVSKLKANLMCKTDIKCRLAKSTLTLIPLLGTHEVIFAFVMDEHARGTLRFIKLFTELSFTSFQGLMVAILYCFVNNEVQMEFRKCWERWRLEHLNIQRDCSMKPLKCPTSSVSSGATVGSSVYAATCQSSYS
In words: In vitro receptor binding assay using NIT-1 cells.

Data set [1] can be described thus: Aggregation observed during experiments. The following applies: lower concentrations during experiments. The class given is physicochemical.

Non-standard residues stand in square brackets, D forms with d. Residues, ends and D or L forms follow the SMILES beside them. Aha = [N-]=[N+]=NCC[C@H](N)C(=O)O

One may read the Kd as the constant that tells how readily two partners part at equilibrium. Read a high Kd as a looser complex.

`CC[C@H](C)[C@H](NC(=O)[C@H](Cc1ccccc1)NC(=O)[C@H](CCN=[N+]=[N-])NC(=O)[C@H](CCCCN)NC(=O)[C@H](C)NC(=O)[C@H](C)NC(=O)[C@H](CCC(N)=O)NC(=O)CNC(=O)[C@H](CCC(=O)O)NC(=O)[C@H](CCN=[N+]=[N-])NC(=O)[C@H](Cc1ccc(O)cc1)NC(=O)[C@H](CO)NC(=O)[C@H](CO)NC(=O)[C@@H](NC(=O)[C@H](CC(=O)O)NC(=O)[C@H](CO)NC(=O)[C@@H](NC(=O)[C@H](Cc1ccccc1)NC(=O)[C@@H](NC(=O)CNC(=O)[C@H](CCC(=O)O)NC(=O)[C@H](C)NC(=O)[C@@H](N)Cc1c[nH]cn1)[C@@H](C)O)[C@@H](C)O)C(C)C)C(=O)N[C@@H](C)C(=O)N[C@@H](Cc1c[nH]c2ccccc12)C(=O)N[C@@H](CC(C)C)C(=O)N[C@H](C(=O)N[C@@H](CCCCN)C(=O)NCC(=O)N[C@@H](CCCNC(=N)N)C(N)=O)C(C)C` [double mutant GLP-1] (H-HAEGTFTSDVSSY[Aha]EGQAAK[Aha]FIAWLVKGR-NH2) gave a Kd at GLP-1R of 5.6 nM. For the same compound, in data set [1], the aggregation result was “no aggregation was detected at lower concentrations”. In addition, the “half-life slower than wild-type GLP-1” value with trypsin was 1 to 2 orders of magnitude.

(Values after PMC4933591 (Bioconjugate chemistry, 2015).)
